The nature of series [1]: Evaluation of hygroscopicity (weight change in desiccators at set relative humidity). In kind it is physicochemical. The note with it: for Weight change: two days or more, 60 mg. As for the experimental part: The crystalline form A of enavogliflozin in the known Korean Unexamined Patent Application Publication No. 2017-0142904 and the enavogliflozin crystalline form E were taken in amounts of 60 mg each and placed in desiccators at relative humidity of 11%, 33%, 54%, 75%, and 93%, each for two days or more to absorb moisture, and then the weight change was measured.

A short description of series [2]: Stress stability evaluation for moisture (93% RH), HPLC purity. Format: physicochemical. The note with it: for Purity: 93% RH. The source says:
(§1) To confirm the possibility of commercializing the novel crystalline form E of enavogliflozin of the present invention, the crystalline form A of enavogliflozin in Korean Unexamined Patent Application Publication No. 2017-0142904 was used as a control to test stress stability, and analyzed by high performance liquid chromatography (HPLC), and the results are shown in Tables 4 and 5.

Series [3] in a line: Stress stability evaluation for heat (60° C.), HPLC purity. Format: physicochemical. The note with it: for Purity: 60° C.
Source text: as §1

Series [4] is described as follows: Pharmacokinetic study in beagle dogs, oral administration. The following applies: 1 mg/kg. Format: in vivo, beagle dog. As for the experimental part:
Pharmacokinetic profiles of crystalline form A of enavogliflozin and the novel crystalline form E were to be confirmed in beagle dogs. The crystalline form A of enavogliflozin was set as a control, the novel crystalline form E was set as a comparison group, and each of the crystalline form A of enavogliflozin and the novel crystalline form E was orally administered to a male beagle dog at a dose of 1 mg/kg, and blood samples were collected before administration (0 hours), and at 0.083, 0.25, 0.5, 0.75, 1, 1.5, 2, 4, 6, 8, 12, and 24 hours (a total of 13 times). Blood drug concentrations were analyzed by LC-MS/MS using plasma separated from the collected samples, and pharmacokinetic parameters such as the maximum observed plasma concentration (Cmax), an area under the plasma concentration-time curve (AUClast and AUCinf), a time-to-maximum observed plasma concentration (Tmax), and a half-life (T1/2) were calculated and interpreted using the WinNonlin 5.0.1 program.

The mark [5] stands for this setting: beagle dog, relative to crystalline form A.

Consider `OC[C@H]1O[C@@H](c2cc(Cc3ccc(C4CC4)cc3)c(Cl)c3c2CCO3)[C@H](O)[C@@H](O)[C@@H]1O` [Crystalline form A of enavogliflozin, enavogliflozin], for which the Weight change in series [1] (relative humidity 11%) was 0%; in series [1] (relative humidity 33%) it was 0.5%; in series [1] (relative humidity 54%), 0.5%; in series [1] (relative humidity 75%), 0.5%; in series [1] (relative humidity 93%), 0.5%. In addition, the Purity in series [2] (Initial, HPLC) is listed as 99.8%; in series [2] (Week 2, HPLC), 99.8%; in series [2] (Week 4, HPLC), 99.8%; in series [3] (Initial, HPLC), 99.1%; in series [3] (Week 2, HPLC), 98.8%; in series [3] (Week 4, HPLC), 99.1%. In series [3] (Week 8, HPLC), the Purity was found to be 99.5%.
Broadly, the AUC(0-inf) is the area under the concentration-time curve extrapolated to infinity. Lower therefore signals low exposure. In general, AUC(0-t) refers to the area under the concentration-time curve up to a stated or last time point. Higher therefore signals more exposure. What is called Cmax is the highest concentration seen after dosing. By Tmax is commonly meant the time from dosing to the highest level. The half-life is the time needed for the level to fall by half in the phase considered. Higher therefore signals slow decline. On to `OC[C@H]1O[C@@H](c2cc(Cc3ccc(C4CC4)cc3)c(Cl)c3c2CCO3)[C@H](O)[C@@H](O)[C@@H]1O` [Crystalline form E of enavogliflozin, enavogliflozin], for which the “Hygroscopicity compared to crystalline form A (in words)” value in series [1] (relative humidity 11% to 93%) is “more improved hygroscopicity”. The Weight change in series [1] (relative humidity 11%) was 0%; in series [1] (relative humidity 33%), 0.3%; in series [1] (relative humidity 54%) it was 0.3%; in series [1] (relative humidity 75%), 0.3%; in series [1] (relative humidity 93%), 0.3%. In series [4] (setting [5]), the “PK exposure parameters AUClast and AUCinf compared to crystalline form A (in words)” value is on record as “increased”. Besides, in series [4] (setting [5]), the “Tmax reduction compared to crystalline form A” value is given as at least 1.25 times. For the same molecule, the AUC(0-inf) in series [4] (male beagle dog, plasma) was 4820 ng·h/mL. This molecule came in with an area under the curve AUC(0-t) in series [4] (male beagle dog, plasma) of 4540 ng·h/mL. Moreover, the Cmax in series [4] (male beagle dog, plasma) was found to be 470 ng/mL. In addition, in series [4] (male beagle dog, plasma), the Tmax was 3.2 h. The same molecule had a half-life in series [4] (male beagle dog, plasma) of 5.04 h. The “Stress stability, purity and crystalline form (in words)” value in series [2] (4 weeks at 93% RH) and in series [3] (8 weeks at 60° C.) was “stably maintained” throughout. The Purity was 99.0% in series [2] (Initial, HPLC); 99.3% in series [2] (Week 2, HPLC); 99.3% in series [2] (Week 4, HPLC); 99.0% in series [3] (Initial, HPLC); 99.2% in series [3] (Week 2, HPLC); 99.2% in series [3] (Week 4, HPLC). This molecule registered a Purity in series [3] (Week 8, HPLC) of 99.5%.

For the origin of these results see patent US20260098033A1, “NOVEL CRYSTALLINE FORM OF ENAVOGLIFLOZIN, AND PREPARATION METHOD THEREFOR” (DAEWOONG PHARMACEUTICAL CO., LTD., priority 2022, published 2026).
